For one assay, the target named is T1, GriF (Streptomyces muensis, UniProt A0A0E3URI1).
T1 construct: recombinant, produced in E. coli
T1 sequence (A0A0E3URI1 1-391): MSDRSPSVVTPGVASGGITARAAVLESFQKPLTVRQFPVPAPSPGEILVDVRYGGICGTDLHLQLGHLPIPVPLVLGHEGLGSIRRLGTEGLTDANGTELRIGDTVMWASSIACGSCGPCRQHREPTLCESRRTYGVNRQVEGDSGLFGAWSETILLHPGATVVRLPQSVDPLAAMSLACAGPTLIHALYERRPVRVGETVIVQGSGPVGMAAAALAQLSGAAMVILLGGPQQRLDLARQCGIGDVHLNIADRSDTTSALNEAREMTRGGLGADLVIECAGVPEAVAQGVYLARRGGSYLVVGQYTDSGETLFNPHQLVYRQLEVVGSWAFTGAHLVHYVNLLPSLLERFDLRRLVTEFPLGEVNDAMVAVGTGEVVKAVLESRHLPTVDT
The assay can be described thus: LC-MS of product. The format is biochemical. The conditions noted are these: NAD+, ZnSO4; product cyclizes to the pyrroline.

A further assay has as its target T2, GriE (Streptomyces muensis, UniProt A0A0E3URV8).
T2 construct: recombinant, produced in E. coli
T2 sequence (A0A0E3URV8 1-270): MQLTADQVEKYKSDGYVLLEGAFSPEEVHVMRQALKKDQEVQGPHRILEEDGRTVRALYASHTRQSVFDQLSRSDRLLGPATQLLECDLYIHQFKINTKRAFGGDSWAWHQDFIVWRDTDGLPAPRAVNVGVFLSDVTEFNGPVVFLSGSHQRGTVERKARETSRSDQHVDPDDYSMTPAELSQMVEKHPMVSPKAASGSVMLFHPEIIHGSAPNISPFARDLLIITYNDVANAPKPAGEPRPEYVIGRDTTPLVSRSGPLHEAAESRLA
Nature of the assay: X-ray crystallography. The format is binding.

[1] abbreviates: co-crystallized with Mn2+, L-leucine and alpha-ketoglutarate, turned over in the crystal set-up, 1.53 Å.

Take `C[C@@H](CO)C[C@H](N)C(=O)O` [(2S,4R)-5-hydroxyleucine]: the LC-MS of product result on GriF was “incubation of recombinant GriF with 5-hydroxyleucine, ZnSO4 and NAD^+ was unstable”. In addition, the X-ray crystallography entry at GriE (setting [1]) was “electron density clearly confirms 5-hydroxyleucine to be the postulated (2S,4R)-diastereomer”.
`CC(C)C[C@H](N)C(=O)O` [L-leucine]: at GriE (co-crystallized with Co2+ in place of Fe2+ and alpha-ketoglutarate, 1.76 Å, active site, no direct metal contact), the X-ray crystallography entry was “unambiguously revealed bound metal and both L-leucine and α-ketoglutarate”.
On to `O=C(O)CCC(=O)O` [succinate], for which the X-ray crystallography result on GriE (setting [1]) was “succinate coordinates the metal with one carboxylate oxygen”.

For the origin of these results see paper PMC5676206, “Biosynthesis of methyl-proline containing griselimycins, natural products with anti-tuberculosis activity” (Chemical Science, 2017).
